Where no end group is shown, it is not given here.
System: iPS cells (clone name: 201B2 or 201B7)
Experiment: AFP dot blotting of iPS cell culture supernatant
Format: cell-based, human
Settings: peptide concentration 6.0 μM; 8th to 20th day of culture in the presence of the peptide; FIG. 5
Description: The stem cell differentiation-inducing activities of the differentiation-inducing synthetic peptides (Samples 2-7) obtained in Example 1 above were evaluated by measuring changes over time in AFP expression levels (typically, extracellular excretion levels). AFP is a differentiation marker protein that is known to be in expressed in cells that have differentiated into liver precursor cells in particular of the endodermal cells. iPS cells that had been cultured and passaged in vitro were used as the test cells. The details of the evaluation test are as follows.
As in Example 3, the peptides of Samples 2 through 7 were added to a peptide concentration of 6.0 μM to added to medium containing cultured iPS cells (clone name: 201B2 or 201B7), and the cells were cultured (Sample Groups 2 through 7). A peptide free-group (comparative example) using cells cultured under the same conditions as in Sample groups 2 through 7 without the addition of a peptide was also established as a control group. […]
After completion of the antigen-antibody reaction with the secondary antibody, Lumina Crescendo Western HRP Substrate (Merck Millipore Corp.) was dripped on the nitrocellulose membrane to react the substrate with the HRP-labeled antibody (secondary antibody), and the target protein (AFP) was detected with a LAS-3000 luminescent image analyzer (Fuji Film).

## RLLLLLLVGLTAPALAKKRTLRKNDRKKR-COOH (RLLLLLLVGLTAPALAKKRTLRKNDRKKR-OH) [Sample 4]
  amount of AFP in the culture supernatant in comparison with peptide-free group with the same culture time: particularly dramatic

From patent US10100284B2, “Method for inducing differentiation of pluripotent stem cells into endodermal cells” (TOAGOSEI CO., LTD., priority 2013, dated 2018)
